Molecular target: T1, human P2X4 (Homo sapiens, UniProt Q99571)
T1 sequence (Q99571 1-388): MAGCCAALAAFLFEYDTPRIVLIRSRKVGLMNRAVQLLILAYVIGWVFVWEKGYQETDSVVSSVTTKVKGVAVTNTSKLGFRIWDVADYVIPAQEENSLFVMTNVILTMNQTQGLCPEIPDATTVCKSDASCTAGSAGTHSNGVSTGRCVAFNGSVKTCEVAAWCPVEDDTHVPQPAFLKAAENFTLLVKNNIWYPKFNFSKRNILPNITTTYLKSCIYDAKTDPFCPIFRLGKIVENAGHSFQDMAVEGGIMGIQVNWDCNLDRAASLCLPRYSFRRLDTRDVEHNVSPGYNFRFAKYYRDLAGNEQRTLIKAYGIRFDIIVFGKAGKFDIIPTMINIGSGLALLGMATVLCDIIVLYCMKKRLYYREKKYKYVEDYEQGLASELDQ
Assay: Human P2X4 HEK Cell FLIPR Assay
Format: cell-based
Settings: agonist Bz-ATP at EC80; for Emax: HEK293, HEK293 cells, percentage of maximal inhibition, read-out: Human P2X4 HEK Cells (FLIPR Assay) avg Efficacy [%]; for IC50: HEK293 cells, individual values listed where some fall outside detection range
Procedure, shortened: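 Calcium flux read by FLIPR for 120 sec after Bz-ATP challenge at EC80 (established each assay day), following 30 min room-temperature compound preincubation in dye-loaded stable human P2X4 HEK293 cells. Peak RFU over basal normalized to agonist control; IC50, maximal inhibition and Hill coefficient from triplicate means.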

NS(=O)(=O)c1cc(NC(=O)Cc2ccc(C(F)(F)F)cc2Cl)ccc1-n1ncc(C(F)(F)F)n1 [Example 414, 2-[2-Chloro-4-(trifluoromethyl)phenyl]-N-{3-sulfamoyl-4-[4-(trifluoromethyl)-2H-1,2,3-triazol-2-yl]phenyl}acetamide]
Emax: 20%
IC50: > 25000 nM

CC(C)(C)c1cnn(-c2ccc(NC(=O)Cc3ccccc3Cl)cc2S(N)(=O)=O)c1 [Example 394, N-[4-(4-tert-Butyl-1H-pyrazol-1-yl)-3-sulfamoylphenyl]-2-(2-chlorophenyl)acetamide]
Emax: 86%
IC50: 740 nM

N#Cc1cnn(-c2ccc(NC(=O)C(O)c3ccccc3Cl)cc2S(N)(=O)=O)c1 (stereo not drawn) [Example 558, 2-(2-Chlorophenyl)-N-[4-(4-cyano-1H-pyrazol-1-yl)-3-sulfamoylphenyl]-2-hydroxyacetamide]
Emax: 75%
IC50: 1380 nM

NS(=O)(=O)c1cc(NC(=O)Cc2ccccc2Cl)ccc1-c1cncc(Cl)c1 [Example 325, 2-(2-Chlorophenyl)-N-[4-(5-chloropyridin-3-yl)-3-sulfamoylphenyl]acetamide]
Emax: 94%
IC50: 9 nM

N#Cc1ncn(-c2ccc(NC(=O)Cc3ccccc3Cl)cc2S(N)(=O)=O)n1 [Example 41, 2-(2-Chlorophenyl)-N-[4-(3-cyano-1H-1,2,4-triazol-1-yl)-3-sulfamoylphenyl]acetamide]
Emax: 70%
IC50: 357 nM

NS(=O)(=O)c1cc(NC(=O)Cc2ccc(F)cc2)ccc1-c1cnn(C(F)F)c1 [Example 227, N-{4-[1-(Difluoromethyl)-1H-pyrazol-4-yl]-3-sulfamoylphenyl}-2-(4-fluorophenyl)-acetamide]
Emax: 95%
IC50: 404 nM

CC(C)(O)c1cc(F)cc(-c2ccc(NC(=O)Cc3ccccc3Cl)cc2S(N)(=O)=O)c1 [Example 340, 2-(2-Chlorophenyl)-N-[3′-fluoro-5′-(2-hydroxypropan-2-yl)-2-sulfamoylbiphenyl-4-yl]acetamide]
Emax: 89%
IC50: 34 nM

Cc1cc(-c2ccc(NC(=O)Cc3ccccc3Cl)cc2S(N)(=O)=O)n(C)n1 [Example 351, 2-(2-Chlorophenyl)-N-[4-(1,3-dimethyl-1H-pyrazol-5-yl)-3-sulfamoylphenyl]acetamide]
Emax: 88%
IC50: 51 nM

NS(=O)(=O)c1cc(NC(=O)Cc2ccccc2F)ccc1-n1cc(-c2ccncn2)cn1 [Example 405, 2-(2-Fluorophenyl)-N-{4-[4-(pyrimidin-4-yl)-1H-pyrazol-1-yl]-3-sulfamoylphenyl}acetamide]
Emax: 65%
IC50: 5670 nM

COc1cc(-c2ccc(NC(=O)Cc3ccccc3Cl)cc2S(N)(=O)=O)cnc1Cl [Example 332, N-[4-(6-Chloro-5-methoxypyridin-3-yl)-3-sulfamoylphenyl]-2-(2-chlorophenyl)-acetamide]
Emax: 89%
IC50: 326 nM

NS(=O)(=O)c1cc(NC(=O)Cc2ccccc2Cl)ccc1-c1ccns1 [Example 496, 2-(2-Chlorophenyl)-N-[3-sulfamoyl-4-(1,2-thiazol-5-yl)phenyl]acetamide]
Emax: 87%
IC50: 22 nM

CC(C)Cn1cc(-c2ccc(NC(=O)Cc3ccccc3Cl)cc2S(N)(=O)=O)cn1 [Example 328, 2-(2-Chlorophenyl)-N-{4-[1-(2-methylpropyl)-1H-pyrazol-4-yl]-3-sulfamoylphenyl}acetamide]
Emax: 94%
IC50: 12 nM

NS(=O)(=O)c1cc(NC(=O)Cc2ccccc2C(F)F)ccc1-c1cnn(C(F)F)c1 [Example 225, 2-[2-(Difluoromethyl)phenyl]-N-{4-[1-(difluoromethyl)-1H-pyrazol-4-yl]-3-sulfamoyl-phenyl}acetamide]
Emax: 91%
IC50: 70 nM

NS(=O)(=O)c1cc(NC(=O)Cc2ccccc2F)ccc1-c1nnc(C(F)F)o1 [Example 523, N-{4-[5-(Difluoromethyl)-1,3,4-oxadiazol-2-yl]-3-sulfamoylphenyl}-2-(2-fluorophenyl)acetamide]
Emax: 89%
IC50: 149 nM

Cc1nc(-c2ccc(NC(=O)Cc3ccccc3Cl)cc2S(N)(=O)=O)sc1C [Example 502, 2-(2-Chlorophenyl)-N-[4-(4,5-dimethyl-1,3-thiazol-2-yl)-3-sulfamoylphenyl]acetamide]
Emax: 49%
IC50: 13800 nM

Cc1cc(F)c(Br)cc1CC(=O)Nc1ccc(-n2cc(Cl)cn2)c(S(N)(=O)=O)c1 [Example 104, 2-(5-Bromo-4-fluoro-2-methylphenyl)-N-[4-(4-chloro-1H-pyrazol-1-yl)-3-sulfamoyl-phenyl]acetamide]
Emax: 95%
IC50: 2230 nM

Cc1ccc(Cl)c(CC(=O)Nc2ccc(-n3cc(C#N)cn3)c(S(N)(=O)=O)c2)c1 [Example 209, 2-(2-Chloro-5-methylphenyl)-N-[4-(4-cyano-1H-pyrazol-1-yl)-3-sulfamoylphenyl]-acetamide]
Emax: 91%
IC50: 37 nM

N#Cc1cnn(-c2ccc(NC(=O)Cc3c(F)ccc(F)c3Cl)cc2S(N)(=O)=O)c1 [Example 208, 2-(2-Chloro-3,6-difluorophenyl)-N-[4-(4-cyano-1H-pyrazol-1-yl)-3-sulfamoylphenyl]-acetamide]
Emax: 91%
IC50: 33 nM

NS(=O)(=O)c1cc(NC(=O)Cc2ccccc2Cl)ccc1-c1nnc(C(F)(F)F)o1 [Example 391, 2-(2-Chlorophenyl)-N-{3-sulfamoyl-4-[5-(trifluoromethyl)-1,3,4-oxadiazol-2-yl]phenyl}acetamide]
Emax: 98%
IC50: 186 nM

Cn1ccc(-c2ccc(NC(=O)Cc3ccccc3Cl)cc2S(N)(=O)=O)c1 [Example 529, 2-(2-Chlorophenyl)-N-[4-(1-methyl-1H-pyrrol-3-yl)-3-sulfamoylphenyl]acetamide]
Emax: 92%
IC50: 72 nM

CC(C)(O)c1ncc(-c2ccc(NC(=O)Cc3ccccc3Cl)cc2S(N)(=O)=O)s1 [Example 435, 2-(2-Chlorophenyl)-N-{4-[2-(2-hydroxypropan-2-yl)-1,3-thiazol-5-yl]-3-sulfamoylphenyl}acetamide]
Emax: 77%
IC50: 588 nM

CCOc1ncc(-c2ccc(NC(=O)Cc3ccccc3Cl)cc2S(N)(=O)=O)cn1 [Example 309, 2-(2-Chlorophenyl)-N-[4-(2-ethoxypyrimidin-5-yl)-3-sulfamoylphenyl]acetamide]
Emax: 93%
IC50: 317 nM

NS(=O)(=O)c1cc(NC(=O)Cc2ccccc2Cl)ccc1-c1cnc(OC2CCC2)nc1 [Example 316, 2-(2-Chlorophenyl)-N-{4-[2-(cyclobutyloxy)pyrimidin-5-yl]-3-sulfamoylphenyl}acetamide]
Emax: 86%
IC50: 362 nM

NS(=O)(=O)c1cc(NC(=O)Cc2cccc(F)c2)ccc1-c1cncc(C(F)(F)F)c1 [Example 447, 2-(3-Fluorophenyl)-N-{3-sulfamoyl-4-[5-(trifluoromethyl)pyridin-3-yl]phenyl}acetamide]
Emax: 68%
IC50: 1020 nM

CC(C)Oc1cccc(-c2ccc(NC(=O)Cc3ccccc3Cl)cc2S(N)(=O)=O)c1F [Example 330, 2-(2-Chlorophenyl)-N-[2′-fluoro-3′-(propan-2-yloxy)-2-sulfamoylbiphenyl-4-yl]-acetamide]
Emax: 101%
IC50: 14 nM

NS(=O)(=O)c1cc(NC(=O)Cc2ccccc2Cl)ccc1-c1cnc(NC2CC2)nc1 [Example 299, 2-(2-Chlorophenyl)-N-{4-[2-(cyclopropylamino)pyrimidin-5-yl]-3-sulfamoylphenyl}acetamide]
Emax: 88%
IC50: 203 nM

Cc1cnn(-c2ccc(NC(=O)Cc3ccccc3F)cc2S(N)(=O)=O)c1 [Example 262, 2-(2-Fluorophenyl)-N-[4-(4-methyl-1H-pyrazol-1-yl)-3-sulfamoylphenyl]acetamide]
Emax: 92%
IC50: 235 nM

COc1cccc(Cl)c1CC(=O)Nc1ccc(-n2cc(Cl)cn2)c(S(N)(=O)=O)c1 [Example 105, 2-(2-Chloro-6-methoxyphenyl)-N-[4-(4-chloro-1H-pyrazol-1-yl)-3-sulfamoyl-phenyl]acetamide]
Emax: 101%
IC50: 108 nM

NS(=O)(=O)c1cc(NC(=O)Cc2cc(F)cc(F)c2)ccc1-n1cc(Cl)cn1 [Example 83, N-[4-(4-Chloro-1H-pyrazol-1-yl)-3-sulfamoylphenyl]-2-(3,5-difluorophenyl)acetamide]
Emax: 36%
IC50: > 25000 nM

CC(C)c1ccccc1CC(=O)Nc1ccc(-n2cc(C(F)(F)F)cn2)c(S(N)(=O)=O)c1 [Example 137, 2-(2-Isopropylphenyl)-N-{3-sulfamoyl-4-[4-(trifluoromethyl)-1H-pyrazol-1-yl]phenyl}-acetamide]
Emax: 89%
IC50: 1170 nM

Reference: patent US11524938B2, “Aromatic sulfonamide derivatives” (Bayer Pharma Aktiengesellschaft, priority 2016, dated 2022)
